Measured values as given in patent US20130345053A1, “Fungicidal Composition” (ICA LABORATORIES CC, priority 2011, published 2013).

What was measured:
penicilium italicum = assay: in vitro efficacy on PDA medium in microtitre plate wells (radial growth of colony); format: cell-based; settings: for control of the growth of the fungus (in words): 60 ppm each, alone or combined; for Radial growth of fungus / Efficacy: 60 ppm, PDA medium, 22° C.; for Radial growth of fungus: control 20 mm; for Efficacy: versus untreated control
Experimental: This example illustrates the efficacy of the composition according to the invention for controlling penicilium italicum. The trial was carried out in vitro.
The fungicidal compositions were used in the form of the formulated product incorporated in PDA medium in superfusion at doses in an amount of 6 μl of fungicidal solutions together with 1000 μl of PDA per well of 20 mm in diameter of a microtitre plate (four repeats/product). One day later, a microdrop of an aqueous suspension of penicilium italicum supplemented with 400 ppm of Tween 20 was brought to the surface of each well of the microtitre plate. The cultures were then incubated at 22° C. at 60% relative humidity under subdued light until the control culture (without fungicide) had covered the entire surface of the well. The diameter of each colony was then measured and, in comparison with untreated control, a percentage efficacy was calculated using the formula
(§1) (Diameter of the Control−Diameter of the Trial/Diameter of the Control×100)

penicillium expansum = assay: in vivo efficacy on Golden apples, preventive sprinkling then inoculation, fruit affected by rot counted; settings: for Efficacy: Golden apples, 20° C., scored from three weeks; for control of the growth of the fungus (in words): hexanal 1000 ppm, imidazalil 250 ppm, alone or combined, apples
Experimental: This example provides an illustration of the efficacy of the composition according to the invention for combating penicillium expansum on apples. The trial was carried out in vivo.
The fungicidal compositions were used in solution at the doses detailed in Table 2. Apples of the Golden variety, untreated after harvest, were treated by sprinkling a fungicidal solution up to the run-of limit at the doses described in Table 2 (10 apples per product). Six hours later, the fruit was inoculated by sprinkling an aqueous suspension at 150000 spores/ml of […]. obtained from a pre-culture on PDA medium. This inoculation by sprinkling was carried out up to the run-off limit. The fruit was then stored in the dark at 20° C. and 100% relative humidity and the scores for the disease were measured three weeks later, for a period of two weeks. The numbers of fruit samples affected by rot were counted and, in comparison with the untreated control, a percentage efficacy was calculated using the formula
as §1

geotrichum candidum = assay: in vivo efficacy on valencia citrus, wound inoculation then treatment six hours later, fruit affected by rot counted; settings: 5° C., 28 days
Experimental: This trial was carried out in vivo.
The fungicidal compositions were used in solution at the doses detailed in Table 3. Citrus of the valencia variety, untreated after harvest, was treated by sprinkling a fungicidal solution up to the run-off limit at the doses described in Table 3 of results (10 citrus per product). First inoculation by pre-made wounds was made with a suspension of 150000 spores/ml of geotrichum candidum, obtained from a pre-culture on PDA medium. Then six hours later, the product tested was applied up to the run-off limit. The fruit were then stored in the dark at 5° C. and 100% relative humidity and the scores for the disease were measured 28 days later.
The number of fruit samples affected by rot was counted and, in comparison with the untreated control, a percentage efficacy was calculated and show in table 3 below: […]

SMILES | control of the growth of the fungus (in words) (penicilium italicum) | Radial growth of fungus (penicilium italicum) [mm] | Efficacy (penicilium italicum) [%] | Efficacy (penicillium expansum; 1000 ppm) [%] | control of the growth of the fungus (in words) (penicillium expansum) | Efficacy (geotrichum candidum; 1500 ppm) [%] | Efficacy (penicillium expansum; 250 ppm) [%] | Efficacy (geotrichum candidum; 500 ppm) [%]
CCCCCC=O [hexanal] | poor results | 19 | 5 | 12 | did not control the growth of the fungus | 20 | – | –
CCCN(CCOc1c(Cl)cc(Cl)cc1Cl)C(=O)n1ccnc1 [procloraz, prochloraz] | poor results | 18 | 10 | – | – | – | – | –
C=CCOC(Cn1ccnc1)c1ccc(Cl)cc1Cl (stereo not drawn) [Imazalil, imazalil] | – | – | – | – | did not control the growth of the fungus | – | 28 | 0
